Measured values as given in patent publication EP1295874A2, “Retroviral protease inhibiting compounds” (Abbott Laboratories, priority 1995, dated 1997).
Like-named read-outs stand apart in the source and are kept apart here.

Tests used:
[1] = system: HIVIIIB; assay: Antiviral activity (anti-HIV activity) in MT4 cells, MTT readout; type: cell-based; details: Human immunodeficiency virus 1, MT4, 120 h, read-out: IC50 (µM, 0% plasma)
From the text: (§1) The anti-HIV activity of the compound of the invention can be determined in MT4 cells according to the following procedure. MT4 cells were infected with cell-free supernatant of HIVIIIB (previously frozen with known 50% tissue culture infectious dose (TCID50) at 0.003 multiplicity of infection (MOI) for one hour. After one hour infection, cells were washed twice to remove residual viruses, resuspended in culture media and seeded into 96-well tissue culture plates at 1x10^4 cells per well with various half-log dilutions of compounds. Uninfected cells are included as toxicity and cell controls. RPMI 1640 media (Gibco ) with 10% fetal bovine serum were used as culture media. Various concentrations of human serum (Sigma) 50%, 25% and 12.5% were added to culture media resulting in final concentration of 60%, 35% and 22.5% total serum. All assay plates were incubated in 37 deg. cent. incubator for 5 days. MTT (sigma, 5 mg/ml stock in PBS) was added to all wells at 25 ul per well, incubate for 4 hours. 20%SDS with 0.02 N HCl in water was added at 50 ul per well to lyse cellls. Plates incubated overnight for complete lyses were read on a microtitre plate reader at 570/650 nm wavelengths to determine cell optical density (O.D.). Raw data were analysed for percent inhibition by the following formula: (O.D. test well - O.D. virus control)/(O.D. cell control -O.D. virus control)x100 [formula] The 50% effective concentration (EC50) was calculated by the median effect equation (Chou, 1975,Proc. Int. Cong. Pharmacol. 6th p. 619) to determine the efficacy of compound. The 50% lethal concentration (LC50) was calculated using uninfected MT4 cells.
(§2) Under these conditions, the following data were obtained (n = 4 duplicate determinations: Table 2

[2] = biological target: T1, HIV protease (Human immunodeficiency virus type 1 group M subtype B, UniProt P04585); assay: Fluorogenic Assay for Screening Inhibitors of HIV Protease; type: biochemical; details: Inhibitor Concentration 0.5 nanomolar; read-out: Percent Inhibition
T1 construct: HIV protease consists of two identical subunits, each of which has 99 amino acid residues
Description: The inhibitory potency of the compound of the invention can be determined by the following method.
The compound of the invention is dissolved in DMSO and a small aliquot further diluted with DMSO to 100 times the final concentration desired for testing. The reaction is carried out in a 6 X 50 mm tube in a total volume of 300 microliters. The final concentrations of the components in the reaction buffer are: 125 mM sodium acetate, 1 M sodium chloride, 5 mM dithiothreitol, 0.5 mg/ml bovine serum albumin, 1.3 µM fluorogenic substrate, 2% (v/v) dimethylsulfoxide, pH 4.5. After addition of inhibitor, the reaction mixture is placed in the fluorometer cell holder and incubated at 30°C for several minutes. The reaction is initiated by the addition of a small aliquot of cold HIV protease. The fluorescence intensity (excitation 340 nm, emmision 490 nM) is recorded as a function of time. The reaction rate is determined for the first six to eight minutes. The observed rate is directly proportional to the moles of substrate cleaved per unit time. The percent inhibition is 100 X (1 - (rate in presence of inhibitor)/(rate in absence of inhibitor)).
Fluorogenic substrate: Dabcyl-Gaba-Ser-Gln-Asn-Tyr-Pro-lle-Val-Gln-EDANS wherein DABCYL = 4-(4-dimethylamino-phenyl)azobenzoic acid, Gaba = γ-aminobutyric acid, and EDANS = 5-((2-aminoethyl)amino)-naphthalene-1-sulfonic acid.

[3] = system: Ritonavir-Resistant HIV from Patients; assay: microbe, parasite or virus in culture; type: cell-based
[4] = system: Ritonavir-Resistant Mutant HIV Clones; assay: microbe, parasite or virus in culture; type: cell-based
[5] = 50% lethal concentration in uninfected MT4 cells (MTT); type: cell-based; details: human, read-out: LC50
From the text: as §1, §2

[6] = system: HIV Selected In Vitro by the Compound of Example 2B; assay: microbe, parasite or virus in culture; type: cell-based
[7] = system: Passaged HIV-1; assay: Phenotypic susceptibility of in vitro passaged HIV-1 to the compound of Example 2B (MTT colorimetric assay); type: cell-based

Work on `Cc1cccc(C)c1OCC(=O)N[C@@H](Cc1ccccc1)[C@@H](O)C[C@H](Cc1ccccc1)NC(=O)[C@H](C(C)C)N1CCCNC1=O` [Example 2B, (2S, 3S, 5S)-2-(2,6-Dimethylphenoxyacetyl) amino-3-hydroxy-5-[2S-(1-tetrahydro-pyrimid-2-onyl)-3-methylbutanoyl] amino-1,6-diphenylhexane] yielded an IC50 [1] of 0.016 µM, an inhibition at 0.0005 µM [2] of 93.2% and an EC50 ([3]; Human immunodeficiency virus 1, 24 h, Patient No. 313, Day 1, baseline) of 4 nM. The EC50 ([3]; Human immunodeficiency virus 1, 24 h, Patient No. 410, Day 1, baseline) was 6 nM, the EC50 ([3]; Human immunodeficiency virus 1, 504 h, Patient No. 104, Day 21, V82A) was 9 nM and the EC50 ([3]; Human immunodeficiency virus 1, 672 h, Patient No. 104, Day 28, V82T) was 13 nM. It also gave an EC50 ([3]; Human immunodeficiency virus 1, Patient No. 104, Day -1, baseline) of 8 nM, an EC50 ([3]; Human immunodeficiency virus 1, Patient No. 129, Day 84, M36I, I54V, A71V, V82T) of 33 nM and an EC50 ([3]; Human immunodeficiency virus 1, Patient No. 129, Day 140, K20K/R, M36M/I, I54V, A71A/V, V82T) of 29 nM. For the same compound, the EC50 ([3]; Human immunodeficiency virus 1, Patient No. 129, Day -1, baseline) was 5 nM, the EC50 ([3]; Human immunodeficiency virus 1, Patient No. 131, Day 88, M36I, 154V>I, V82A) was 15 nM and the EC50 ([3]; Human immunodeficiency virus 1, Patient No. 131, Day 200, K20K/R, M36I, I54I/V, V82A) was 52 nM. For the same compound, the EC50 ([3]; Human immunodeficiency virus 1, Patient No. 131, Day -28, baseline) was 4 nM, the EC50 ([3]; Human immunodeficiency virus 1, Patient No. 224, Day 110, L33L/F, V82T/S) was 12 nM and the EC50 ([3]; Human immunodeficiency virus 1, Patient No. 224, Day 190, K20K/N/R, L33L/F, M36M/I, I54V/M, V82S) was 52 nM. It also gave an EC50 ([3]; Human immunodeficiency virus 1, Patient No. 224, Day -6, baseline) of 6 nM, an EC50 ([3]; Human immunodeficiency virus 1, Patient No. 235, Day 167, I54I/V, A71V, V82A. L90L/M) of 6 nM and an EC50 ([3]; Human immunodeficiency virus 1, Patient No. 235, Day -1, baseline) of 6 nM. The EC50 ([3]; Human immunodeficiency virus 1, Patient No. 313, Day 57, M36M/I, V82F) was 11 nM, the EC50 ([3]; Human immunodeficiency virus 1, Patient No. 313, Day 85, M36M/I, I54I/V, V82S/F/A/T) was 25 nM and the EC50 ([3]; Human immunodeficiency virus 1, Patient No. 410, Day 57, M36M/I, I54I/V, V82A) was 33 nM. For the same compound, the EC50 ([3]; Human immunodeficiency virus 1, Patient No. 410, Day 85, M36I, I54V, V82A) was 97 nM, the EC50 ([4]; Human immunodeficiency virus 1, HXB2, Virus Clone Wild Type (HXB2), 0% Human Serum) was 12 nM and the EC50 ([4]; Human immunodeficiency virus 1, HXB2, Virus Clone Wild Type (HXB2), 50% Human Serum) was 51 nM. It also gave an EC50 ([4]; Human immunodeficiency virus 1, Virus Clone E35D, M36I, I54V, A71V, V82T, 0% Human Serum) of 83 nM, an EC50 ([4]; Human immunodeficiency virus 1, Virus Clone E35D, M36I, I54V, A71V, V82T, 50% Human Serum) of 691 nM and an EC50 ([4]; Human immunodeficiency virus 1, Virus Clone G48V, 0% Human Serum) of 8 nM. The EC50 ([4]; Human immunodeficiency virus 1, Virus Clone G48V, 50% Human Serum) was 156 nM, the EC50 ([4]; Human immunodeficiency virus 1, Virus Clone I54V, V82T, 0% Human Serum) was 213 nM and the EC50 ([4]; Human immunodeficiency virus 1, Virus Clone I54V, V82T, 50% Human Serum) was 1150 nM. It also gave an EC50 ([4]; Human immunodeficiency virus 1, Virus Clone I84V, 0% Human Serum) of 20 nM, an EC50 ([4]; Human immunodeficiency virus 1, Virus Clone I84V, 50% Human Serum) of 170 nM and an EC50 ([4]; Human immunodeficiency virus 1, Virus Clone K20R, E35D, M36I, I54V, A71V, V82T, 0% Human Serum) of 93 nM. For the same compound, the EC50 ([4]; Human immunodeficiency virus 1, Virus Clone K20R, E35D, M36I, I54V, A71V, V82T, 50% Human Serum) was 376 nM, the EC50 ([4]; Human immunodeficiency virus 1, Virus Clone L90M, 0% Human Serum) was 16 nM and the EC50 ([4]; Human immunodeficiency virus 1, Virus Clone L90M, 50% Human Serum) was 180 nM. The EC50 ([4]; Human immunodeficiency virus 1, Virus Clone V82A, 0% Human Serum) was 33 nM, the EC50 ([4]; Human immunodeficiency virus 1, Virus Clone V82A, 50% Human Serum) was 268 nM and the EC50 ([4]; Human immunodeficiency virus 1, Virus Clone V82F, 0% Human Serum) was 26 nM. The EC50 ([4]; Human immunodeficiency virus 1, Virus Clone V82F, 50% Human Serum) was 147 nM, the EC50 ([4]; Human immunodeficiency virus 1, Virus Clone V82S, 0% Human Serum) was 26 nM and the EC50 ([4]; Human immunodeficiency virus 1, Virus Clone V82S, 50% Human Serum) was 314 nM. For the same compound, the EC50 ([4]; Human immunodeficiency virus 1, Virus Clone V82T, 50% Human Serum) was 147 nM, the EC50 ([4]; Human immunodeficiency virus 1, Virus Clone Wild Type (pNL4-3), 0% Human Serum) was 22 nM and the EC50 ([4]; Human immunodeficiency virus 1, Virus Clone Wild Type (pNL4-3), 50% Human Serum) was 126 nM. The CC50 at 120 h [5] was 17800 nM, the EC50 ([6]; Human immunodeficiency virus 1, NL43, Virus NL4-3) was 28 nM and the EC50 ([6]; Human immunodeficiency virus 1, Virus P7) was 116 nM. For the same compound, the EC50 ([6]; Human immunodeficiency virus 1, Virus P11) was 349 nM, the EC50 ([6]; Human immunodeficiency virus 1, Virus P14) was 1280 nM and the EC50 ([6]; Human immunodeficiency virus 1, Virus P17) was 9480 nM. It also gave an EC50 ([7]; Human immunodeficiency virus 1, 384 h, read-out: The compound of Example 2B EC50 (µM), Virus P2 (selected at 0.02 µM, 16 days in culture)) of 0.025 µM, an EC50 ([7]; Human immunodeficiency virus 1, NL43, read-out: The compound of Example 2B EC50 (µM), Virus NL4-3) of 0.028 µM and an EC50 ([7]; Human immunodeficiency virus 1, read-out: The compound of Example 2B EC50 (µM), Virus P6 (selected at 0.12 µM, 58 days in culture)) of 0.149 µM. For the same compound, the EC50 ([7]; Human immunodeficiency virus 1, read-out: The compound of Example 2B EC50 (µM), Virus P7 (selected at 0.15 µM, 65 days in culture)) was 0.201 µM, the EC50 ([7]; Human immunodeficiency virus 1, read-out: The compound of Example 2B EC50 (µM), Virus P8 (selected at 0.21 µM, 75 days in culture)) was 0.295 µM and the EC50 ([7]; Human immunodeficiency virus 1, read-out: The compound of Example 2B EC50 (µM), Virus P9 (selected at 0.30 µM, 82 days in culture)) was 0.333 µM. It also gave an EC50 ([7]; Human immunodeficiency virus 1, read-out: The compound of Example 2B EC50 (µM), Virus P10 (selected at 0.30 µM, 93 days in culture)) of 0.464 µM, an EC50 ([7]; Human immunodeficiency virus 1, read-out: The compound of Example 2B EC50 (µM), Virus P11 (selected at 0.42 µM, 100 days in culture)) of 0.346 µM and an EC50 ([7]; Human immunodeficiency virus 1, read-out: The compound of Example 2B EC50 (µM), Virus P12 (selected at 0.62 µM, 107 days in culture)) of 0.291 µM. The EC50 ([7]; Human immunodeficiency virus 1, read-out: The compound of Example 2B EC50 (µM), Virus P13 (selected at 0.80 µM, 114 days in culture)) was 1 µM, the EC50 ([7]; Human immunodeficiency virus 1, read-out: The compound of Example 2B EC50 (µM), Virus P14 (selected at 1.10 µM, 121 days in culture)) was 1.11 µM and the EC50 ([7]; Human immunodeficiency virus 1, read-out: The compound of Example 2B EC50 (µM), Virus P15 (selected at 1.50 µM, 128 days in culture)) was 1.34 µM. For the same compound, the EC50 ([7]; Human immunodeficiency virus 1, read-out: The compound of Example 2B EC50 (µM), Virus P16 (selected at 2.00 µM, 135 days in culture)) was 1.43 µM.
